The record followed here is BindingDB's records for doi:10.1016/j.bmc.2008.07.062 (Astellas Pharma, 2008).

Experiment [1] in a line: Antagonist activity at human CCR4 receptor assessed as inhibition of CCL22-induced chemotaxis by bioluminescent assay.
Experiment [2] can be described thus: Antagonist activity at mouse CCR4 receptor assessed as inhibition of CCL22-induced chemotaxis by bioluminescent assay.

pIC50: −log10 of the molar value.

The pIC50 is the negative decadic logarithm of the IC50, by convention in mol/L. With `COc1cc2nc(N3CCC(N(C)CCCO)CC3)nc(Nc3ccc(Cl)cc3)c2cc1OC` [3-[(1-{4-[(4-Chlorophenyl)amino]-6,7-dimethoxyquinazolin-2-yl}piperidin-4-yl)(methyl)amino]propan-1-ol], in experiment [1], the negative logarithm of the IC50 (pIC50) was 6.55.
Consider `COc1cc2nc(N3CCC(N(C)CCCCO)CC3)nc(Nc3ccc(Cl)cc3)c2cc1OC` [4-[(1-{4-[(4-Chlorophenyl)amino]-6,7-dimethoxyquinazolin-2-yl}piperidin-4-yl)(methyl)amino]butan-1-ol], for which, in experiment [1], the pIC50 was 6.44.
Regarding `COc1cc2nc(N3CCC(N4CCCC4)CC3)nc(Nc3ccc(F)c(F)c3)c2cc1OC` [N-(3,4-Difluorophenyl)-6,7-dimethoxy-2-(4-pyrrolidin-1-ylpiperidin-1-yl)quinazolin-4-amine], the negative-log IC50 (pIC50) in experiment [2] is 6.09; in experiment [1], 7.16.
As to `COc1cc2nc(N3CCC(N4CCCC4)CC3)nc(Nc3ccc(F)cc3)c2cc1OC` [N-(4-Fluorophenyl)-6,7-dimethoxy-2-(4-pyrrolidin-1-ylpiperidin-1-yl)quinazolin-4-amine], the results for the pIC50 in experiment [2] and in experiment [1] were 6.15 and 6.49, respectively.
